From PubChem BioAssay (NCI)
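96-well plates; 48 h exposure; 5 concentrations. Endpoints by linear interpolation between flanking doses. Not reached: highest tested concentration assigned. TGI: total growth inhibition.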

Key:
Assay in all cases: growth of human tumour cells (NCI), 48 h
[1] = test system: CAKI-1 renal
[2] = test system: DMS 114 small cell lung
[3] = test system: DMS 273 small cell lung
[4] = test system: DU-145 prostate
[5] = test system: HL-60(TB) leukemia
[6] = test system: HOP-18 NSCLC
[7] = test system: KM20L2 colon
[8] = test system: LXFL 529 NSCLC
[9] = test system: M19-MEL melanoma
[10] = test system: OVCAR-4 ovarian
[11] = test system: SF-268 CNS
[12] = test system: UACC-257 melanoma
[13] = test system: XF 498 CNS

| Compound | TGI [1] | TGI [2] | TGI [3] | TGI [4] | TGI [5] | TGI [6] | TGI [7] | TGI [8] | TGI [9] | TGI [10] | TGI [11] | TGI [12] | TGI [13] |
| --- | --- | --- | --- | --- | --- | --- | --- | --- | --- | --- | --- | --- | --- |
| O=C1c2ccccc2C(=O)c2c1oc1cc(O)c(Cl)cc21 | 32.5 µM | 6.1 µM | 10.8 µM | 13.5 µM | 32.9 µM | 6.79 µM | 6.79 µM | > 46.3 µM | 0.445 µM | 23.4 µM | 31.9 µM | 7.78 µM | 20.2 µM |
| CN1CCCS/C1=C1/SC(=S)N(c2ccccc2)C1=O | > 100 µM | > 100 µM | > 100 µM |  | > 100 µM | > 100 µM | > 100 µM | > 100 µM | > 100 µM | > 100 µM | > 100 µM | > 100 µM | > 100 µM |
| N#CCCC(C#N)(C#N)CCC#N |  | > 100 µM | > 100 µM |  | > 100 µM |  | > 100 µM | > 100 µM | > 100 µM |  | > 100 µM | > 100 µM | > 100 µM |
| CN1CCS(=O)(=O)NC(Cc2ccccc2)C(=O)N2CCCC2C1=O (stereo not given) | > 100 µM | > 100 µM | > 100 µM |  | > 100 µM | > 100 µM | > 100 µM | > 100 µM | > 100 µM | > 100 µM | > 100 µM | > 100 µM | > 100 µM |
| C/C=C1\Oc2ccc(OC)cc2S1(=O)=O | > 100 µM | > 100 µM | > 100 µM |  | > 100 µM | > 100 µM | > 100 µM | > 100 µM | > 100 µM | > 100 µM | > 100 µM | > 100 µM |  |
| COP12(OC)NC(=O)OC1(C(F)(F)F)c1ccccc1O2 (stereo not given) |  | > 100 µM | > 100 µM |  | > 100 µM | > 100 µM |  | > 100 µM | > 100 µM | > 100 µM | > 100 µM | > 100 µM | > 100 µM |
| O=C1CCC(=O)c2ccccc2N1 | > 100 µM | > 100 µM | > 100 µM |  | > 100 µM | > 100 µM | > 100 µM | > 100 µM | > 100 µM | > 100 µM | > 100 µM | > 100 µM | > 100 µM |
| COc1ccc(OC(=O)N2C/C(=C\c3ccccc3)C(=O)/C(=C/c3ccccc3)C2)cc1 |  |  | 6.28 µM | 65.1 µM | 14 µM | 49.5 µM | 17 µM | 6.92 µM | 2.9 µM | 23.5 µM | 15.2 µM | 7.71 µM |  |
| COc1ccc(S(=O)(=O)N/N=C(\C)CN2C(=O)c3ccccc3C2=O)cc1OC | > 100 µM | > 100 µM | > 100 µM |  | > 100 µM | > 100 µM | > 100 µM | > 100 µM | > 100 µM | > 100 µM | > 100 µM | > 100 µM | > 100 µM |
| c1cc2c(cc1C1OCC3C(c4ccc5c(c4)OCO5)OCC13)OCO2 (stereo not given) |  | > 100 µM |  |  |  | > 100 µM | > 100 µM | > 100 µM | > 100 µM | > 100 µM | > 100 µM | > 100 µM | 99.8 µM |
